{"source": "patent US9694027B2", "about": "“Pyrazole derivative and use thereof for medical purposes” (KISSEI PHARMACEUTICAL CO. LTD., priority 2012, dated 2017)", "key": {"[1]": {"test_system": "rat model of low-fiber diet-induced constipation", "assay": "Rat model of low-fiber diet-induced constipation (Example 2)", "protocol": "Compound 2 was weighed and was dissolved in distilled water at preparation concentrations of 3, 10 and 30 mg/mL as the free drug to prepare test compounds.\n0.5% methylcellulose (0.5% MC) was used as a vehicle for preparation of lubiprostone. Lubiprostone was weighed and was suspended in 0.5% MC at preparation concentrations of 1, 3 and 10 mg/mL to prepare control substances.\nMagnesium sulfate (MgSO4) (Wako pure chemical) was weighed and was dissolved in distilled water at a preparation concentrations of 200 mg/mL to prepare a positive control substance.\nA soluble starch, sucrose and lactose monohydrate were weighed at a rate of 6:3:1 and were dissolved in distilled water which was approximately 80% of the amounts of preparation on heating, and then the mixture was added with distilled water to prepare 0.4 g/mL solution of mixed carbohydrate.\nA low-fiber diet was prepared based on the literature (Kakino et al. BMC Complementary and Alternative Medicine 2010, 10: 68).\nRats were fed on the low-fiber diet for 1-2 weeks to induce constipation.\nCompound 2 (3 mg/kg, 10 mg/kg or 30 mg/kg as free drug), lubiprostone (1 mg/kg, 3 mg/kg or 10 mg/kg), MgSO4 (2000 mg/kg) or a vehicle (distilled water: Control group 1, 0.5% MC: Control group 2) was administered orally at around 9 a.m. using a 1 mL glass syringe and a stomach tube. Then, 0.4 g/mL solution of mixed carbohydrate was administered orally at 2 mL/body to Control group 1 and the groups administered with Compound 2. Distilled water was administered to the normal feed group.\nThe sum of the fecal weights at the collection times was set as the fecal weight at 24 hours after the administration.\nThe statistical analysis was made by testing the uniformity of variance using Bartlett's method, and multiple comparison between Control group 1 and the group administered with Compound 2 or Control group 2 and the group administered with lubiprostone was made using Dunnett's method when variance was uniform respectively, and multiple comparison was made using Steel's method when variance was not uniform. In each case, significance level<5% was considered as significant difference."}, "[2]": {"test_system": "Loperamide-induced dog constipation model", "assay": "Loperamide-induced dog constipation model (Example 1)", "assay_type": "in vivo", "conditions": "for Dry fecal weight within 24 hours after the administration / Wet fecal weight within 24 hours after the administration / Frequency of bowel movement within 24 hours after the administration: mean of 10 dogs; for Dry fecal weight within 24 hours after the administration: Control group 1.0, Normal group 47.1; for Wet fecal weight within 24 hours after the administration: Control group 2.8, Normal group 136.2; for Frequency of bowel movement within 24 hours after the administration: observation at 17, 21, 24 hours, Control group 0.2, Normal group 2.1", "protocol": "Lubiprostone (TLC Pharma Chem) was weighed and was suspended in 0.5% methylcellulose at preparation concentrations of 0.05 and 0.35 mg/mL to prepare control substances.\nLoperamide hydrochloride (Wako pure chemical) was weighed at 0.3, 0.5, 1.0, 2.0, 4.0 or 8.0 mg/kg for each animal and was filled into a gelatin capsule.\nLoperamide hydrochloride which was filled into a gelatin capsule was orally administered to dogs (beagle, male, 13-14 months old, 10 dogs, Kitayama-labesu). The dosage was increased from 0.3 mg/kg, and was set at 2.0, 4.0 or 8.0 mg/kg based on the bowel movement condition of each dog.\nTests were performed as a full cross-over trial. More than 5-day washout period was provided between each test, and a recovery of stool form was identified, and then the next test was performed.\nA gelatin capsule which was filled with loperamide hydrochloride was administered orally at around 9 a.m. on the first and second days in each test.\nThe stool form of feces was scored in seven categories based on Bristol Stool Form Scale. The collected feces were dried fully, and then the feces were weighed, and it was set as the dry fecal weight."}, "healthy adult males": {"test_system": "healthy adult males", "assay": "Multiple-dose study in healthy adult males (Example 4)", "assay_type": "in vivo, human", "protocol": "Compound 2 at a dose of 2, 5, 10 or 20 mg (free drug equivalent), a placebo, or miglitol at a dose of 50 mg was repetitively administered orally once daily just immediately before breakfast on administration Days 1 and 13, and 3 times daily just immediately before every meal on administration Days 3 to 12 to healthy adult males. For the administration of Compound 2, tablets containing 1, 5 or 10 mg in free drug equivalent were used. The test period was set between administration Day 1 and Day 15. Frequencies of bowel movements were checked during consultation by a doctor, and the adverse events (gastrointestinal disorders) were defined when an abnormal finding (diarrhea or loose stool) was seen based on the stool form and the finding. In this regard, the frequencies of bowel movements in Table 8 show the daily means during fifteen days (time/day)."}}, "data": [{"smiles": "O=S(=O)([O-])[O-].[Mg+2]", "note": "[MgSO4, Magnesium sulfate]", "values": [{"measurement": "Watery stool", "setting": "[1]; 2000 mg/kg", "result": "watery stool was reported"}, {"measurement": "Fecal weight, effect of positive control", "setting": "[1]; 2000 mg/kg oral", "result": "increase of the fecal weight was also shown"}, {"measurement": "Fecal weight within 24 hours after the administration", "setting": "[1]; 2000 mg/kg oral, positive control, n=4, Control group 1 0.53", "result": 3.70, "unit": "g"}]}, {"smiles": "CCCCC(F)(F)[C@@]1(O)CC[C@H]2[C@@H](CC(=O)[C@@H]2CCCCCCC(=O)O)O1", "note": "[lubiprostone, Lubiprostone, reference compound]", "values": [{"measurement": "Wet fecal weight, dry weight and frequency of bowel movements versus Control group", "setting": "[2]; 0.1 mg/kg or more, significance level <5%", "result": "significantly higher than in Control group"}, {"measurement": "Dry fecal weight within 24 hours after the administration", "setting": "[2]; 0.1 mg/kg oral", "result": 8.3, "unit": "g"}, {"measurement": "Wet fecal weight within 24 hours after the administration", "setting": "[2]; 0.1 mg/kg oral", "result": 18.7, "unit": "g"}, {"measurement": "Frequency of bowel movement within 24 hours after the administration", "setting": "[2]; 0.1 mg/kg oral", "result": 0.9, "unit": "time"}, {"measurement": "Dry fecal weight within 24 hours after the administration", "setting": "[2]; 0.7 mg/kg oral", "result": 21.5, "unit": "g"}, {"measurement": "Wet fecal weight within 24 hours after the administration", "setting": "[2]; 0.7 mg/kg oral", "result": 55.4, "unit": "g"}, {"measurement": "Frequency of bowel movement within 24 hours after the administration", "setting": "[2]; 0.7 mg/kg oral", "result": 1.0, "unit": "time"}, {"measurement": "Increases of loose stool and diarrhea", "setting": "[2]; all doses of this test", "result": "not observed"}, {"measurement": "Dose dependence of wet fecal weight, dry weight and frequency of bowel movements", "setting": "[2]; within 24 hours after oral administration", "result": "dose-dependently increased"}, {"measurement": "Fecal weight within 24 hours after the administration", "setting": "[1]; 1 mg/kg oral in 0.5% MC, n=5, Control group 2 0.58", "result": 0.60, "unit": "g"}, {"measurement": "Fecal weight within 24 hours after the administration", "setting": "[1]; 3 mg/kg oral in 0.5% MC, n=5, Control group 2 0.58", "result": 0.95, "unit": "g"}, {"measurement": "Fecal weight within 24 hours after the administration", "setting": "[1]; 10 mg/kg oral in 0.5% MC, n=5, Control group 2 0.58", "result": 1.25, "unit": "g"}, {"measurement": "Fecal weight during 24 hours versus Control group", "setting": "[1]; 10 mg/kg, versus Control group 2, significance level <5%", "result": "significantly higher than in each Control group"}, {"measurement": "Dose dependence of fecal weight during 24 hours after the administration", "setting": "[1]; oral", "result": "dose-dependently increased"}]}, {"smiles": "OCCN1C[C@H](O)[C@@H](O)[C@H](O)[C@H]1CO", "note": "[Miglitol, miglitol, reference compound]", "values": [{"measurement": "Daily frequency of bowel movement after the administration, Mean", "setting": "healthy adult males; 50 mg, once daily Days 1 and 13, 3 times daily Days 3 to 12, daily mean during fifteen days, 8 subjects, Placebo 1.0", "result": 1.0, "unit": "time/day"}, {"measurement": "Number of subject with gastrointestinal disorders: Abdominal pain", "setting": "healthy adult males; multiple dose 50 mg, of 8 subjects, Placebo 0", "result": 0}, {"measurement": "Number of subject with gastrointestinal disorders: Diarrhea", "setting": "healthy adult males; multiple dose 50 mg, of 8 subjects, Placebo 3", "result": 2}]}]}
